In patent US7183306B2, “Pyrazole derivatives” (Astellas Pharma Inc., priority 2002, dated 2007) one finds melting point and response vs control in vivo data, which are given here for 79 compounds.

Where only a bound is given, the exact number is not on record here.

Tested on in one data set: not given
Assay: not given
Conditions: not given
What is called melting point is the temperature of the solid-liquid transition. `COc1ccc(-n2nc(C3CC3)cc2-c2ccc(OCCO)cc2)cc1` registered a melting point of 142 to 144 °C.
In the case of `COc1ccc(-n2nc(C(C)C)cc2-c2ccc(OCCNC(N)=O)cc2)cc1`, the melting point was in the range of 100 to 104 °C.
In the case of `COc1ccc(-n2nc(C(F)(F)F)cc2-c2ccc(CCNS(N)(=O)=O)cc2)cc1`, the melting point fell in the range of 127 to 128 °C.
The compound `COc1ccc(-n2nc(OCC(=O)N(C)C)cc2-c2ccc(OCCO)cc2)cc1` yielded a melting point of 106.6 to 107.1 °C.
Consider `COc1ccc(-n2nc(C#N)cc2-c2ccc(OCCO)cc2)cn1`, for which the melting point fell in the range of 105 to 107 °C.
Consider `COc1ccc(-n2nc(OCC(F)(F)F)cc2-c2ccc(CNS(C)(=O)=O)cc2)cn1`, for which the melting point was in the range of 130 to 131 °C.
`COc1ccc(-n2nc(C(C)C)cc2-c2ccc(CNS(C)(=O)=O)cc2)cc1` gave a melting point of 130.9 to 131 °C.
Compound `COc1ccc(-n2nc(C(=O)C(C)C)cc2-c2ccc(OCCNS(C)(=O)=O)cc2)cn1` showed a melting point of 155.6 to 155.8 °C.
Turning to `COc1ccc(-n2nc(OCC(F)(F)F)cc2-c2ccc(OCCO)cc2)cc1`, the melting point lay in the range of 50.7 to 51.7 °C.
The compound `COc1ccc(-n2nc(C(=O)N3CCCCC3)cc2-c2ccc(CNS(C)(=O)=O)cc2)cn1` returned a melting point of 182.6 to 182.9 °C.
`COc1ccc(-n2nc(C3CC3)cc2-c2ccc(OCCNC(N)=O)cc2)cn1` showed a melting point of 94 to 96 °C.
Compound `COc1ccc(-n2nc(C#N)cc2-c2ccc(OCCNS(C)(=O)=O)cc2)cc1` returned a melting point of 149 to 153 °C.
Turning to `C=C(C)c1cc(-c2ccc(OCCNS(C)(=O)=O)cc2)n(-c2ccc(OC)nc2)n1`, the melting point is 96 to 99 °C.
Compound `COc1ccc(-n2nc(C3CC3)cc2-c2ccc(OCCNS(C)(=O)=O)cc2)cn1` returned a melting point of 95 to 97 °C.
Turning to `CCN(C)C(=O)c1cc(-c2ccc(OCCNC(N)=O)cc2)n(-c2ccc(OC)nc2)n1`, the melting point fell in the range of 146.3 to 146.7 °C.
Still for that read-out and setting: as for `COc1ccc(-n2nc(OC)cc2-c2ccc(OCCO)cc2)cc1`, the figure is 107 to 109 °C.
In turn, `COc1ccc(-n2nc(C3CC3)cc2-c2ccc(OCCNS(N)(=O)=O)cc2)cc1` registered a melting point of 142 to 143 °C.
For `COc1ccc(-n2nc(OCC(F)(F)F)cc2-c2ccc(OCCNC(N)=O)cc2)cn1`, the melting point fell in the range of 134.8 to 134.9 °C.
On the same count and under the same terms, the same measure for `CCOc1cc(-c2ccc(OCCNS(C)(=O)=O)cc2)n(-c2ccc(OC)cc2)n1`: 146 to 147 °C.
The same measure, in the same setting: the same measure for `COc1ccc(-n2nc(C(F)(F)F)cc2-c2ccc(CCNS(N)(=O)=O)cc2)cn1`: 114 to 115 °C; for `COc1ccc(-n2nc(-c3nc(C)no3)cc2-c2ccc(OCCO)cc2)cc1`: 158 to 159 °C; for `COc1ccc(-n2nc(Cl)cc2-c2ccc(CNS(C)(=O)=O)cc2)cc1`: 68.3 to 69.3 °C.
On the same count and under the same terms, the same measure for `COc1ccc(-n2nc(SC)cc2-c2ccc(OCCNS(C)(=O)=O)cc2)cc1`: 165 to 166 °C.
Compound `CCOc1cc(-c2ccc(OCCO)cc2)n(-c2ccc(OC)nc2)n1` came in with a melting point of 81 to 82 °C.
In the case of `COc1ccc(-n2nc(Cl)cc2-c2ccc(OCCO)cc2)cn1`, the melting point lay within 136.5 to 138.2 °C.
On the same count and under the same terms, as for `CCN(C)C(=O)c1cc(-c2ccc(CNC(N)=O)cc2)n(-c2ccc(OC)cc2)n1`, the figure is 184.7 to 185.1 °C; as for `COCOc1ccc(-c2cc(S(C)(=O)=O)nn2-c2ccc(OC)cc2)cc1`, 128 to 128.1 °C.
Consider `COc1ccc(-n2nc(C(=O)N3CCCCC3)cc2-c2ccc(OCCNS(C)(=O)=O)cc2)cn1`, for which the melting point was in the range of 158.8 to 159.1 °C.
In turn, `CCOc1cc(-c2ccc(OCCNC(N)=O)cc2)n(-c2ccc(OC)cc2)n1` yielded a melting point of 154.2 to 154.4 °C.
In turn, `COc1ccc(-n2nc(C(=O)C(C)C)cc2-c2ccc(OCCNS(C)(=O)=O)cc2)cc1` registered a melting point of 155 °C.
On the same count and under the same terms, the same measure for `COc1ccc(-n2nc(C3CC3)cc2-c2ccc(OCCN)cc2)cc1.Cl` [322]: 228 to 231 °C; for `COc1ccc(-n2nc(C(F)F)cc2-c2ccc(CCNC(N)=O)cc2)cn1`: 194 to 196 °C.
Compound `COc1ccc(-n2nc(S(C)(=O)=O)cc2-c2ccc(OCCNC(N)=O)cc2)cc1` yielded a melting point of 165 to 167 °C.
The compound `CCN(C)C(=O)c1cc(-c2ccc(CNC(N)=O)cc2)n(-c2ccc(OC)nc2)n1` returned a melting point of 172.6 to 172.8 °C.
Regarding `COc1ccc(-n2nc(C3CC3)cc2-c2ccc(OCCNS(C)(=O)=O)cc2)cc1`, the melting point lay in the range of 166 to 168 °C.
Same read-out and setting: the same measure for `COc1ccc(-n2nc(C(=O)C(C)C)cc2-c2ccc(OCCO)cc2)cn1`: 108 to 109 °C; for `COc1ccc(-n2nc(C(F)(F)F)cc2-c2ccc(CCNC(N)=O)cc2)cn1`: 205 to 206 °C; for `COc1ccc(-n2nc(OCC(F)(F)F)cc2-c2ccc(OCCO)cc2)cn1`: 91.2 to 91.3 °C.
On the same count and under the same terms, as for `COc1ccc(-n2nc(C(F)(F)F)cc2-c2ccc(CNS(C)(=O)=O)cc2)cn1`, the figure is 125 to 126 °C.
In the case of `COc1ccc(-n2nc(C3CC3)cc2-c2ccc(CCO)cc2)cc1`, the melting point is 111 to 112 °C.
For `COc1ccc(-n2nc(OCC(C)C)cc2-c2ccc(OCCNS(C)(=O)=O)cc2)cc1`, the melting point is 164.3 to 165.2 °C.
In turn, `CCN(C)C(=O)c1cc(-c2ccc(OCCN)cc2)n(-c2ccc(OC)cc2)n1.Cl` displayed a melting point of 207 to 209 °C.
In the case of `COc1ccc(-n2nc(C(C)C)cc2-c2ccc(OCCNC(N)=O)cc2)cn1`, the melting point is 106 to 107 °C.
`COc1ccc(-n2nc(C(=O)N3CCCCC3)cc2-c2ccc(OCCO)cc2)cc1` came in with a melting point of 121.9 to 123.8 °C.
For the compound `COc1ccc(-n2nc(C(F)(F)F)cc2-c2ccc(CCNC(C)=O)cc2)cn1`, the melting point was 97 to 98 °C.
The same measure, in the same setting: the same measure for `COc1ccc(-n2nc(C(=O)C(C)C)cc2-c2ccc(CNS(C)(=O)=O)cc2)cc1`: 155.8 to 155.9 °C; for `COc1ccc(-n2nc(NC(=O)N(C)C)cc2-c2ccc(OCCO)cc2)cc1`: 167.4 to 167.6 °C; for `COc1ccc(-n2nc(OCC(F)F)cc2-c2ccc(OCCNC(N)=O)cc2)cn1`: 146.9 to 147.3 °C.
In turn, `COc1ccc(-n2nc(OC)cc2-c2ccc(OCCNC(N)=O)cc2)cn1` returned a melting point of 192.6 to 192.7 °C.
As to `COc1ccc(-n2nc(S(C)(=O)=O)cc2-c2ccc(OCCO)cc2)cc1`, the melting point was 96 to 99 °C.
On the same count and under the same terms, the same measure for `COc1ccc(-n2nc(C(=O)N3CCCCC3)cc2-c2ccc(CNC(N)=O)cc2)cn1`: 178.9 °C.
Compound `COc1ccc(-n2nc(C(=O)N3CCCCC3)cc2-c2ccc(OCCNC(N)=O)cc2)cc1` came in with a melting point of 152 to 152.2 °C.
For the compound `COC(=O)NCCc1ccc(-c2cc(C(F)(F)F)nn2-c2ccc(OC)cc2)cc1`, the melting point was 78 to 80 °C.
Consider `COc1ccc(-n2nc(OC)cc2-c2ccc(OCCNS(C)(=O)=O)cc2)cn1`, for which the melting point fell in the range of 116 to 117.5 °C.
`COc1ccc(-n2nc(OC)cc2-c2ccc(CNS(C)(=O)=O)cc2)cc1`: the melting point lay within 94 to 94.3 °C.
Compound `COc1ccc(-n2nc(C(=O)C(C)C)cc2-c2ccc(OCCO)cc2)cc1` displayed a melting point of 95 to 96 °C.
On to `COc1ccc(-n2nc(OC)cc2-c2ccc(OCCNC(N)=O)cc2)cc1`, for which the melting point was in the range of 108 to 111 °C.
In turn, `CNS(=O)(=O)CCc1ccc(-c2cc(C(F)(F)F)nn2-c2ccc(OC)nc2)cc1` showed a melting point of 139 to 140 °C.
In turn, `COc1ccc(-n2nc(-c3nc(C)no3)cc2-c2ccc(CCO)cc2)cc1` yielded a melting point of 148 to 150 °C.
Compound `COc1ccc(-n2nc(N(C)C(=O)N(C)C)cc2-c2ccc(OCCNC(N)=O)cc2)cc1` came in with a melting point of 158.6 to 159 °C.
As for `COc1ccc(-n2nc(C#N)cc2-c2ccc(OCCN)cc2)cc1.Cl`, the melting point is 186 to 189 °C.
Same read-out and setting: as for `C=C(C)c1cc(-c2ccc(OCCNC(N)=O)cc2)n(-c2ccc(OC)nc2)n1`, the figure is 94 to 98 °C; as for `COc1ccc(-n2nc(Cl)cc2-c2ccc(OCCNS(C)(=O)=O)cc2)cn1`, 112 to 114 °C.
For the compound `COc1ccc(-n2nc(C#N)cc2-c2ccc(OCCO)cc2)cc1`, the melting point was 91 to 92 °C.
`COc1ccc(-n2nc(C(=O)C(C)C)cc2-c2ccc(OCCNC(N)=O)cc2)cc1` yielded a melting point of 144 to 145 °C.
The compound `COc1ccc(-n2nc(C(=O)C(C)C)cc2-c2ccc(OCCNC(N)=O)cc2)cn1` displayed a melting point of 145 to 147 °C.
Still for that read-out and setting: the same measure for `COc1ccc(-n2nc(C(=O)C3CC3)cc2-c2ccc(OCCNC(N)=O)cc2)cc1`: 136 to 137 °C; for `COc1ccc(-n2nc(C(=O)C3CC3)cc2-c2ccc(OCCO)cc2)cc1`: 132 to 133 °C; for `COc1ccc(-n2nc(OC(C)C)cc2-c2ccc(OCCNC(N)=O)cc2)cc1`: 139 to 140 °C.
`COc1ccc(-n2nc(OC(C)C)cc2-c2ccc(OCCNS(C)(=O)=O)cc2)cc1` returned a melting point of 167.9 to 168 °C.
The same measure, in the same setting: as for `COc1ccc(-n2nc(C(F)(F)F)cc2-c2ccc(CCS(N)(=O)=O)cc2)cc1`, the figure is 131 to 132 °C; as for `COc1ccc(-n2nc(NC(=O)N(C)C)cc2-c2ccc(OCCNC(N)=O)cc2)cc1`, 193 to 196 °C; as for `COc1ccc(-n2nc(SC)cc2-c2ccc(OCCNC(N)=O)cc2)cc1`, 141.2 to 142.2 °C.
Same read-out and setting: as for `COc1ccc(-n2nc(C(F)(F)F)cc2-c2ccc(OCC(N)=O)cc2)cc1`, the figure is 168 to 169 °C; as for `COc1ccc(-n2nc(Cl)cc2-c2ccc(CNC(N)=O)cc2)cn1`, 111 to 115 °C; as for `COc1ccc(-n2nc(NC(=O)N(C)C)cc2-c2ccc(OCCNS(C)(=O)=O)cc2)cc1`, 166 to 167 °C.
In the case of `CCN(C)C(=O)c1cc(-c2ccc(CCNS(C)(=O)=O)cc2)n(-c2ccc(OC)nc2)n1`, the melting point lay in the range of 137 to 138 °C.
`CCN(C)C(=O)c1cc(-c2ccc(OCCNC(N)=O)cc2)n(-c2ccc(OC)cc2)n1` gave a melting point of 108 to 113 °C.

Another data set deals with arthritic rats (adjuvant arthritis). Kind of data set: Analgesic activity: effect on adjuvant arthritis in rats (Randall-Selitto pain threshold). It counts as in vivo, Lewis rats. Particulars: Rattus norvegicus, single dose, pain threshold of left hind paw 2 hrs after administration, threshold pressure of treated vs non-treated rats, ratio of 1.5 considered effective, read-out: The coefficient of analgesic.
On to `COc1ccc(-n2nc(C(F)(F)F)cc2-c2ccc(OCCN)cc2)cc1` [Example 267], for which the response vs control in vivo at 3.2 mg/kg is at least 150%.
